Reference: US20030100508A1, “Carbohydrate epitope mimic compounds and uses thereof” (priority 1999, published 2003)

Key:
[1] = test system: HNK-1 antibody; assay: Phage ELISA: binding of phage clones to coated HNK-1 antibody; design: species or system mouse; conditions: 100 μl culture supernatant; antibody 1 μg/ml coating
Protocol: (§1) Comparative binding of the HNK-1 selected phage/positive clones versus the L2-412 selected 15-15 phage to bound L2-412 antibody, IgG, HNK-1, and IgM is shown FIG. 14. Supernatant (100 μl) from an overnight culture of bacteria secreting phade were incubated with coated antibodies (100 μl of 1 μg/ml useded for coating) and detected with HRP-coupled anti-phage antibody.
Individual colonies resistant to tetracycline and kanamycin were grown in LB containing 20 μg/mil tetracycline in 96-wells plates (Nunc) overnight at 37° C. (300 μl/well), then centrifuged 10 minutes at 3000 rpm in Jouan centrifuge and the supernatant (100 μl) was incubated for 2 hr in another 96-well plate previously coated with mAbL2-412 (100 μl, μg/l ml overnight at 4° C.) and blocked by incubation for 2 hours with PBS-0.5% (w/v) BSA. After washing 5 times, the binding of the phages was detected by incubation with HRP-conjugated anti-M13 antibody (Pharmacia, Biotech.) for 1 hour at a dilution of 1:2000. The peroxidase reaction was started by the addition of 100 μl developer containing 0.01% hydrogen peroxide and 0.1% (w/v) 2,2′-azino-bis(3-ethylbenzthiazoline-6-sulfonic acid)-diammonium salt (ABTS, Boehringer Mannheim) in HRP buffer (0.1M sodium acetate, 0.05M NaH2PO4, pH adjusted to 4.2 with acetic acid). The absorbance of the colored reaction product was determined at 405 nm in a Multiscan TitertekPlus (Flow, Switzerland). […] Two individual colonies were picked and re-assayed for positivity towards mAb L2-412. Positive single colonies were stored in 40% glycerol at −80° C.

[2] = test system: L2-412 antibody; assay: Phage ELISA: binding of phage clones to coated L2-412 antibody; design: species or system rat; conditions: 100 μl culture supernatant; antibody 1 μg/ml coating
Protocol: as §1
Individual colonies resistant to tetracycline and kanamycin were grown in LB containing 20 μg/mil tetracycline in 96-wells plates (Nunc) overnight at 37° C. (300 μl/well), then centrifuged 10 minutes at 3000 rpm in Jouan centrifuge and the supernatant (100 μl) was incubated for 2 hr in another 96-well plate previously coated with mAbL2-412 (100 μl, μg/l ml overnight at 4° C.) and blocked by incubation for 2 hours with PBS-0.5% (w/v) BSA. After washing 5 times, the binding of the phages was detected by incubation with HRP-conjugated anti-M13 antibody (Pharmacia, Biotech.) for 1 hour at a dilution of 1:2000. […] The absorbance of the colored reaction product was determined at 405 nm in a Multiscan TitertekPlus (Flow, Switzerland). […]

[3] = test system: embryonic neural cell cultures; assay: Embryonic neural cell cultures treated with L1 and chemotherapeutic agents; type: cell-based; conditions: with cisplatin and vincristin; experiments not detailed
From the text: Thus, in view of the recognized and previously described role of HNK-1 expressing cells, natural killer cells, in the surveillance of tumors and virus-infected cells, the carbohydrate epitope mimic peptides can be utilized in enhancing, activating or otherwise modulating the surveillance and clearance of tumors and virus-infected cells. The carbohydrate epitope mimic peptides of the present invention may also have use in the protection of cells, particularly neural cells from chemotherapeutic agents. In experiments not specifically detailed in the Examples herein, the inventors treated embryonic neural cell cultures with a combination of the neural cell adhesion molecule L1 and chemotherapeutic agents, including cisplatin and vincristin. The cell cytopathic effects of the chemotherapeutic agents were reduced in te presence of L1. L1expresses the HNK-1 epitope and a good portion of L1 homophilic binding is HNK-1 mediated. Thus, it is contemplated that the L2/HNK-1 epitope mimic peptide of the present invention can be utilized in the protection of cells, particularly neural cells from chemotherapeutic agents. Untoward cellular cytotoxic effects and problematic symptoms associated therewith are a recognized and limiting side effect of chemotherapy, inherently limiting the dose of the agents which can be administered.

[4] = Hall et al. 1995; cited from earlier work
[5] = test system: neural cell adhesion to laminin; conditions: Hall et al. 1995; cited from earlier work
[6] = biological target: T1, laminin (Mus musculus, UniProt P19137); assay: Binding of phage to immobilized laminin; conditions: laminin 10 μg/ml coating; anti-M13 HRP detection
T1 construct: purchased Gibco/BRL
Protocol: FIG. 5 depicts binding of phage 15-15 and control phage UBR2 to immobilized laminin (100 μl of 10 μg/ml used for coating). Bound phage were detected by HRP-conjugated anti-M13 antibody. The results are presented as OD405 vs. relative concentration of the phage preparation (a relative concentration of 100 corresponds to […] phage).

[7] = test system: L2-412 antibody; assay: Competition ELISA: binding of mAb L2-412 to immobilized L2/HNK-1 glycolipids; design: species or system rat
Protocol: FIG. 2A depicts competition of the L2-412 antibody to immobilized L2/HNK-1 glycolipids by various inhibitors: positive phage (denoted phage 15-15), negative phage (denoted neg. control phage), free peptide (denoted peptide 15-15) and SO3-sugar. L2-412 was preincubated with a stepwise 2-fold dilution series of the free peptide (starting concentration 2.2 mM), SO3-sugar (starting concentration 5 mM), positive phage and negative phage (starting concentration 10^12TUs/ml), and added to the coated glycolipid. After incubation and washing, the bound antibody was detected with HRP anti-rat antibody.
FIG. 2B depicts the percentage inhibition of L2-412 antibody to immobilized L2/HNK-1 glycolipids by various inhibitors. The percentage is calculated for the point in FIG. 2A with the highest concentration of inhibitor. […]
Microtiter plates (Nunc) were coated with the L2/HNK-1 glycolipids (50 μl, 1 μg/ml, dissolved in EtOH) and allowed to dry overnight. While blocking the wells for 2 hours with 0.5% (w/v) fatty-acid-free BSA in PBS, a limiting concentration of ^L2-412, previously determined, was pre-incubated with successive 2-fold dilutions of the inhibitor, starting at a concentration of 2.2 mM for the free peptide, 5 mM for the SO3 sugar and 10^12 positive and negative phages (the negative phages were cloned from the unbound fraction of the first round of screening). […]

[8] = test system: oligodendrocytes in mixed cerebellar cultures; assay: Oligodendrocyte cultures treated with HIV gp120 and HNK-1 epitope mimic peptide, RIP immunostaining; type: cell-based, rat
Protocol: For these experiments, mixed neural cultures were isolated from rat cerebellum. Briefly, tissue was harvested from postnatal day five rat pups, dissociated and plated on poly-lysine coated 24 well cluster plates in Neural basal medium plus B27 supplement, 1% FBS and penicillin and streptomycin. HNK-1 epitope mimic peptide 8 mer (FLHTRLFV) (SEQ ID NO:8) (1 mM, 100 nM or 10 nM) was added to wells at the time of plating. Three days later, 1 nM gp120 was preincubated with 1 mM, 100 nM or 10 nM HNK-1 peptidomimetic for 1 hour at 37° C. After one hour, gp120 or gp120 plus HNK-1 peptidomimetic was added to mixed cerebellar cultures in sets of 6 replicates. Four days later, cultures were fixed and immunostained with the oligodendrocyte specific antibody marker, RIP. Data was analyzed by counting the number of RIP positive cells in twenty 20×-microscope fields. In addition, the number of RIP positive cells, mature oligodendrocytes with extensive intact membrane sheaths were counted. The cells are depicted in FIG. 20.

[9] = test system: Ox42 (MAC 1), TNF and GFAP expression; assay: gp120-mediated inflammation and neuropathy, sciatic nerve Oxycel delivery, spinal cord immunohistochemistry; type: in vivo, rat
From the text: Herzberg et al coated the sciatic nerve of rats with oxidized cellulose saturated with gp120 or BSA as control. Persistant hyperalgesia and allodynia were observed throughout a one month testing period in rats treated with gp120. […] This system was utilized to assess the affect of the 8-mer peptide on gp120-mediated inflammation and neuropathy, using Ox42 (MAC 1), TNF and GFAP expression as immunohistochemical markers.
Ox42 (also called MACl) is a general marker for immune/inflammatory activation of the central nervous system (expressed by microglia—when those proliferate and/or extend their processes). If Ox42 marker is present two weeks, and particularly four weeks, after initial neural injury, this indicates a chronic problem. An ongoing inflammatory process in the CNS is correlative of neuropathy. TNF is a cytokine indicating an inflammatory process, and in this case neuronal degeneration. It's expression increases in the CSF of pateints with HIV related neuropathy and is thought to play a role in the degenerative process in these patients (see “role of immune activation and cytokine expression in HIV-1 associated neurologic disease” bay Masaru Yoshioka Walter G Bradley, Paul Shapshak, Isao Nagano, Rene V. Stewart, Ke-Qin Xin, Ashok Srivastava, and Shozo Nakamura in Advance in Neuroimmunology) Vol.5 pp 335-358, 1995. GFAP is a marker for a general activation of astrocytes in the spinal cord and is expressed following damage to the CNS.
Male Sprague Dawley rats weighing 200-225 g were used.
The left sciatic nerve was isolated by blunt dissection, and wrapped with oxidized cellulose (Oxycel, Becton Dickinson) saturated with 250 ul sterile saline containing 400 ng of recombinant gp120 protein alone, or in the presence of 43 ng of the 8-mer L2/HNK-1 mimic peptide (corresponding to a 10×excess […] on a mole-per-mole basis), utilizing the Oxycel delivery method of Eliav et al (Eliav et al (1999) Pain 83(2): 169-82. Eight animals were treated with gp120 alone and eight animals were treated with gp120 and 43 ng peptidomimetic compound.
Animals were euthanized (overdose of xylazine/ketamine) at two and four weeks following surgery and perfused transcardially with ice cold saline followed by 4% paraformaldehyde.
Spinal cords were harvested and cryoprotected overnight at 30% sucrose solution 10 Sections of 40 um thickness from the lumbar enlargement from each animal were thaw mounted onto gelatized slides and stained immunohistochemically for Ox-42 (MACl), TNF and GFAP.

[10] = test system: oligodendrocytes in mixed cerebellar cultures; assay: Oligodendrocyte cultures treated with HIV gp120 and HNK-1 epitope mimic peptide, RIP immunostaining; type: cell-based, rat; remark: listed apart in the source
[11] = biological target: monoclonal antibody L2-412; assay: competition ELISA: L2-412 preincubated with inhibitor (2-fold dilutions from 2.2 mM), then binding to immobilized L2/HNK-1 glycolipid
[12] = gp120 (1 nM) + 10 nM peptide, preincubated
[13] = gp120 (1 nM) + 100 nM peptide, preincubated
[14] = gp120 (1 nM) + 1 uM peptide, preincubated
[15] = gp120 400 ng + 43 ng 8-mer peptide on sciatic nerve, lumbar spinal cord

For “T R L F R V P V F R L G D F W (TRLFRVPVFRLGDFW) [Peptide 15H92]”, the “binding of phage to coated HNK-1 antibody” value [1] was “bind L2-412 and HNK-1, nearly to the same extent” and the “binding of phage to coated L2-412 antibody” value [2] was “bind L2-412 and HNK-1, nearly to the same extent”.

With “L1: neural cell adhesion molecule L1 [Peptide L1]” the “cell cytopathic effects of chemotherapeutic agents” value [3] was “reduced”.

For KGVSSRSYVGCIKNLEISRST, the “binding to the L2/HNK-1 carbohydrate” value [4] is listed as “bound to the L2/HNK-1 carbohydrate in a concentration-dependent manner” and the “inhibition of HNK-1-mediated neural cell adhesion to laminin” value [5] is listed as “inhibited HNK-1-mediated neural cell adhesion to laminin”.

With “S L A P Y S L R I F V L F G G A (SLAPYSLRIFVLFGGA) [Peptide 15H233]” the “binding of phage to coated HNK-1 antibody” value [1] was “bind L2-412 and HNK-1, nearly to the same extent” and the “binding of phage to coated L2-412 antibody” value [2] was “bind L2-412 and HNK-1, nearly to the same extent”.

With “F L H T R L F V S D W Y H T P [phage 15-15]” the “binding of phage to coated HNK-1 antibody” value [1] was “does not bind HNK-1 antibody to a significant extent” and the “binding of phage to immobilized laminin” value [6] was “bind to laminin in a concentration dependent manner”.

With “F L H T R L F V S D W Y H T (FLHTRLFVSDWYHT; m13 library) [Peptide 15-15]” the “inhibition of L2-412 binding to immobilized L2/HNK-1 glycolipids” value ([7]; highest inhibitor concentration (free peptide 2.2 mM, SO3-sugar 5 mM, phage 10^12 TUs/ml), no inhibitor = 0%) was 30-35%.

In the case of “S G R G F C C W S N D S A L S [negative phage, reference compound]”, the “inhibitory effect on L2-412 binding to immobilized L2-glycolipids” value ([7]; phage starting at 10^12) is reported as “did not show this inhibitory effect”.

For “F L H T R L F V (FLHTRLFV; m13 library) [Consensus peptide]”, the “fluorescence microscopy of RIP positive oligodendrocytes” value ([8]; 10 nM HNK-1 epitope mimic peptide) was “Numerous mature RIP positive oligodendrocytes with extensive membrane sheaths were observed”, the “# mature RIP + cells/20 fields” value ([8]; 100 nM peptide) was 16.33 cells/20 fields and the “Total # RIP + cells/20 fields” value ([8]; 100 nM peptide) was 76.67 cells/20 fields. For the same molecule, the “# mature RIP + cells/20 fields” value [8, 12] was 8.833 cells/20 fields, the “# mature RIP + cells/20 fields” value [8, 13] was 11.17 cells/20 fields and the “Total # RIP + cells/20 fields” value [8, 13] was 69.83 cells/20 fields. The “# mature RIP + cells/20 fields” value [8, 14] was 12.33 cells/20 fields, the “effect on mature oligodendrocytes and gp120-associated myelin destruction” value ([8]; summary of Table 6) was “increases the number of mature oligodendrocytes and blocks myelin destruction associated with gp 120 treatment” and the GFAP immunoreactive area [9, 15] was 8745 pixels. The Ox42 immunoreactive area [9, 15] was 1557 pixels, the TNF immunoreactive area [9, 15] was 1478 pixels and the “effect on gp120-induced immunoreactivity” value ([9]; gp120 + peptide versus Oxycel alone) was “brings those values back to the same level as with Oxycel alone”. For the same molecule, the “cellular morphology of spinal cord sections, light microscopy” value ([9]; gp120 in combination with the HNK-1 peptide) was “This cellular morphology was not observed”, the “fluorescence microscopy of RIP positive oligodendrocytes” value ([10]; 1 nM gp120 preincubated with 1 uM HNK-1 epitope mimic peptide) was “indistinguishable from mature RIP positive cells observed in cultures treated with the HNK-1 epitope mimic peptide only” and the “# mature RIP + cells/20 fields” value ([10]; 1 uM peptide) was 13.33 cells/20 fields. The “Total # RIP + cells/20 fields” value ([10]; 1 uM peptide) was 62.67 cells/20 fields, the “# mature RIP + cells/20 fields” value ([10]; 10 uM peptide) was 22.33 cells/20 fields and the “Total # RIP + cells/20 fields” value ([10]; 10 uM peptide) was 75.83 cells/20 fields. The “Total # RIP + cells/20 fields” value [10, 12] was 73.83 cells/20 fields and the “Total # RIP + cells/20 fields” value [10, 14] was 76.83 cells/20 fields.

B1: peptide 15-15 (free synthetic peptide …) (peptide)
peptide: FLHTRLFVSDWYHT
For B1, the percent inhibition [11] was 30 to 35%.
